Consider two compounds from patent US20240261417A1, “SOS1 DEGRADING AGENT AND PREPARATION METHOD THEREFOR AND APPLICATION THEREOF” (SHANGHAI LEADINGTAC PHARMACEUTICAL CO. LTD., priority 2021, published 2024).

The test deals with T1, KRAS-G12C/SOS1 (Homo sapiens, UniProt Q07889).
T1 construct: purchased Cisbio 63ADKOOOCB16PEG
T1 sequence (Q07889 1-1333): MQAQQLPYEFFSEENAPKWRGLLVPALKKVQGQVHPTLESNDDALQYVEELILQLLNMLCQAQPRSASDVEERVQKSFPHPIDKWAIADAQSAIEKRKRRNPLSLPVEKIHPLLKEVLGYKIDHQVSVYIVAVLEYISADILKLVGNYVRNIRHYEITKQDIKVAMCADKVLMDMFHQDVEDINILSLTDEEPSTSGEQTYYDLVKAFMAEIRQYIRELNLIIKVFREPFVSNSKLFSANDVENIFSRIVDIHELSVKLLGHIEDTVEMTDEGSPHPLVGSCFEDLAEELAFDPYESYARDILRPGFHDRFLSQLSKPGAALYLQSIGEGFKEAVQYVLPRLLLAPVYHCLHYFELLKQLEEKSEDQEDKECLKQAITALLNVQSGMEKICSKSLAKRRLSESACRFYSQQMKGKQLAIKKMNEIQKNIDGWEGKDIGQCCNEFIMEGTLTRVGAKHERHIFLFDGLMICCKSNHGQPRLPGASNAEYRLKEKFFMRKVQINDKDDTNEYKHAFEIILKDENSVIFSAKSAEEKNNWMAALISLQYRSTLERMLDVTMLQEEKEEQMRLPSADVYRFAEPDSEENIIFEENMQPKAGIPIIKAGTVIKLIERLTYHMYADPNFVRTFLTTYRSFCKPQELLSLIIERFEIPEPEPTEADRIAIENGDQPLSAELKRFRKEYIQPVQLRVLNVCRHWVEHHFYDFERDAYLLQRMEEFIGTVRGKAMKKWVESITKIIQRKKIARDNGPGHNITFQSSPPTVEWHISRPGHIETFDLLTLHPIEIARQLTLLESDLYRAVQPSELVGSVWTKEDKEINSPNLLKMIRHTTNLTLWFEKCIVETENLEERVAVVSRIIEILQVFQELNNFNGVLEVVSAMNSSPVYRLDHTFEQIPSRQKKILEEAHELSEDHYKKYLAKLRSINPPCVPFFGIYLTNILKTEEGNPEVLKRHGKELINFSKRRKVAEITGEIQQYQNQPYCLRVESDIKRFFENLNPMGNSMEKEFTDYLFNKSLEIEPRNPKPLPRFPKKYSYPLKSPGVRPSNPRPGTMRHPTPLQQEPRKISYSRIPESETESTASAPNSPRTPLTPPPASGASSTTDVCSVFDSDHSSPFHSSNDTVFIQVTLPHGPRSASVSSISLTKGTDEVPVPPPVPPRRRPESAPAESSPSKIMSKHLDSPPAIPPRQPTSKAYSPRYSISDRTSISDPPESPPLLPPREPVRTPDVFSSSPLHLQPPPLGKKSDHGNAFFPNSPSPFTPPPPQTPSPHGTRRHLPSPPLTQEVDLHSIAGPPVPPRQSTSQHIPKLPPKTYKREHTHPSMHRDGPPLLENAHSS
Kind of test: KRAS-G12C/SOS1 binding assay (HTRF). As to conditions: inhibition of KRAS-G12C/SOS1 binding. An outline of the steps: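 HTRF competition assay with Tag1-SOS1 and Tag2-KRAS-G12C (10 μM GTP). Compounds at 10000 nM-0.04 nM final (0.5% DMSO), incubated 15 min at 25° C, then anti-tag Tb3+/XL665 antibodies added for 3 h on ice. The 665/620 nm ratio was compared with control and IC50 derived by nonlinear fit.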
In general terms: In TR-FRET formats the signal depends on donor and acceptor labels being close together.

As usually defined, the IC50 is the midpoint of a concentration-inhibition curve. Read a high IC50 as a need for much substance.

Structures are written as SMILES. Some results are limits rather than exact numbers.

`COc1cc2nc(C)nc(N[C@H](C)c3cc(N)cc(C(F)(F)F)c3)c2cc1[C@H]1CC[C@H](C(=O)N2CCN(CC3CCC4(CC3)CCN(C(=O)c3ccc(Cl)c(N5CCC(=O)NC5=O)c3)CC4)CC2)CC1` [Example 2, 1-(5-(9-((4-((1R,4R)-4-(4-(((R)-1-(3-amino-5-(trifluoromethyl)phenyl)ethyl)amino)-7-methoxy-2-methylquinazolin-6-yl)cyclohexane-1-carbonyl)piperazin-1-yl)methyl)-3-azaspiro[5.5]undecane-3-carbonyl)-2-chlorophenyl)dihydropyrimidine-2,4(1H,3H)-dione] gave an IC50 of at most 15 nM.

Compound `COc1cc2nc(C)nc(N[C@H](C)c3cc(N)cc(C(F)(F)F)c3)c2cc1[C@H]1CC[C@H](C(=O)N2CCN(CCC3CCC4(CC3)CCN(C(=O)c3ccc(Cl)c(N5CCC(=O)NC5=O)c3)CC4)CC2)CC1` [Example 1, 1-(5-(9-(2-(4-((1R,4R)-4-(4-(((R)-1-(3-amino-5-(trifluoromethyl)phenyl)ethyl)amino)-7-methoxy-2-methylquinazolin-6-yl)cyclohexane-1-carbonyl)piperazin-1-yl)ethyl)-3-azaspiro[5.5]undecane-3-carbonyl)-2-chlorophenyl)dihydropyrimidine-2,4(1H,3H)-dione] yielded an IC50 of 15 to 30 nM.
